Read-outs that look alike come from different tables or passages of the source.
Experiments:
FGFR1 = molecular target: T1, FGFR1 (Homo sapiens, UniProt P11362); test: FGFR1 kinase activity inhibition assay (LanthaScreen TR-FRET); type: biochemical
T1 construct: cytoplasmic domain [398-822 (terminal) amino acids]; purchased Carna 08-133
Procedure, shortened: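 Emission ratio 520 nm/495 nm by TR-FRET after stopping reaction with 10 mM EDTA and 60 min incubation at 22°C. Inhibition normalized between no-enzyme (min) and DMSO (max) controls, then fitted to a four-parameter curve (Top, Bottom, HillSlope).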

FGFR3 = molecular target: T2, FGFR3 (Homo sapiens, UniProt P22607); test: FGFR3 kinase activity inhibition assay (LanthaScreen TR-FRET); type: biochemical; conditions: for Selectivity (X) FGFR1/FGFR3: ratio of IC50 FGFR1/FGFR3, selectivity towards FGFR3
T2 construct: FGFR3's cytoplasmic domain [436-806 (terminal) amino acids]; purchased Carna 08-135
T2 sequence (P22607 436-806): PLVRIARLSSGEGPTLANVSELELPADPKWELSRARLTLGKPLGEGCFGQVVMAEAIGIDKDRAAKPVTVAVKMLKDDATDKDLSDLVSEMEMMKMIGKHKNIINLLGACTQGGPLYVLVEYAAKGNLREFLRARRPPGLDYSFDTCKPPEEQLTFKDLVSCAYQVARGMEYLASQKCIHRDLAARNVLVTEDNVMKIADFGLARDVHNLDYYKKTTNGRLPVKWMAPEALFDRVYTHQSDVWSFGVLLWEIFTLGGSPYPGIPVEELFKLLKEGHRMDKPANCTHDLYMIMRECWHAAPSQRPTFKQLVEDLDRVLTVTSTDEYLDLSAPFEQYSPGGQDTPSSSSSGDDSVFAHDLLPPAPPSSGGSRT
Procedure, shortened: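 Read-out is TR-FRET, with the 520 nm/495 nm emission ratio normalised to DMSO (max) and enzyme-free (min) controls. Enzyme was the FGFR3 cytoplasmic domain, residues 436-806. EDTA (10 mM) stopped the reaction, followed by 60 min at 22 °C before reading.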

[1] = FGFR1 kinase, TR-FRET, read-out: IC50 (nM) FGFR1
[2] = FGFR3 kinase, TR-FRET, read-out: IC50 (nM) FGFR3

T1 sequence (P11362 398-822): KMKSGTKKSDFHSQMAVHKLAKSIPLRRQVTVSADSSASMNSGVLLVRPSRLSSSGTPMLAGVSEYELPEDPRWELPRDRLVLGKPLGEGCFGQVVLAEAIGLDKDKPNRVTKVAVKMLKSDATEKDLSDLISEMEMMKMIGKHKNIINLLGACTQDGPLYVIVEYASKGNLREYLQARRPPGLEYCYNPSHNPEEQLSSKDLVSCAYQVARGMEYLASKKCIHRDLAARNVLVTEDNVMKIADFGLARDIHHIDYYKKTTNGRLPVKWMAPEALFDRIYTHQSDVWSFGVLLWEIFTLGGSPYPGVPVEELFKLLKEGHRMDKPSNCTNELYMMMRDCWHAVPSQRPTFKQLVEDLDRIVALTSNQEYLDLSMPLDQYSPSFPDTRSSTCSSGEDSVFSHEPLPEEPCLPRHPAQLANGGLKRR

Structure (SMILES) | IC50 (FGFR1) [nM] | IC50 (FGFR3) [nM] | Selectivity (X) FGFR1/FGFR3 (FGFR3) | IC50 (FGFR1; [1]) [nM] | IC50 (FGFR3; [2]) [nM]
CC(Oc1ccc2[nH]nc(-c3cnn(C4CN(C(=O)CN)C4)c3)c2c1)c1cccc2nccnc12 (stereo not drawn) [Example 175, 2-amino-1-(3-(4-(5-(1-(quinoxalin-5-yl)ethoxy)-1H-indazol-3-yl)-1-pyrazol-1-yl)azetidin-1-yl)ethan-1-one] | 1 to 10 | < 1 | A (A represents 1 ≤ multiple X<20) |  | 
Cc1ccc2ncccc2c1C(C)Oc1ccc2[nH]nc(-c3cnn(C4CN(C(=O)C(C)(C)O)C4)c3)c2c1 (stereo not drawn) [Example 217, 2-hydroxy-2-methyl-1-(3-(4-(5-(1-(6-methylquinolin-5-yl)ethoxy)-1H-indazol-3-yl)-1H-pyrazol-1-yl)azetidin-1-yl)propan-1-one] |  |  | C (C represents 50 ≤ multiple X<100) | 10 to 100 | < 1
CC(Oc1ccc2[nH]nc(-c3cnn(C4CN(C(=O)C5CC5)C4)c3)c2c1)c1cc(Cl)cc2nccnc12 (stereo not drawn) [Example 238, (3-(4-(5-(1-(7-chloroquinoxalin-5-yl)ethoxy)-1H-indazol-3-yl)-1H-pyrazol-1-yl)azetidin-1-yl)(cyclopropyl) methanone] |  |  | B (B represents 20 ≤ multiple X<50) | 10 to 100 | < 1
CNCCNS(=O)(=O)c1ccc2[nH]nc(-c3cnn(C)c3)c2c1 [Example 76, 3-(1-methyl-1H-pyrazol-4-yl)-N-(2-(methylamino)ethyl)-1H-indazole-5-sulfonamide] |  |  | A (A represents 1 ≤ multiple X<20) | > 100 | > 100
CC(Oc1ccc2[nH]nc(-c3cnn(C4CN(C(N)=O)C4)c3)c2c1)c1cc(Cl)cc2nccnc12 (stereo not drawn) [Example 169, 3-(4-(5-(1-(7-chloroquinoxalin-5-yl)ethoxy)-1H-indazol-3-yl)-1H-pyrazol-1-yl)aze tidine-1-carboxamide] |  |  | A (A represents 1 ≤ multiple X<20) | 10 to 100 | 1 to 10
COc1cc(O[C@H](C)c2c(Cl)cncc2Cl)cc2c(-c3cnn(CCN4CCOCC4)c3)n[nH]c12 [Example 25, (R)-4-(2-(4-(5-(1-(3,5-dichloropyridin-4-yl)ethoxy)-7-methoxy-1H-indazol-3-yl)-1H-pyrazol-1-yl)ethyl)morpholine] | > 100 | > 100 | B (B represents 20 ≤ multiple X<50) |  | 
CC(Oc1ccc2[nH]nc(-c3cnn(C)c3)c2c1)c1c(C(F)F)ccc2nccnc12 (stereo not drawn) [Example 232] |  |  | A (A represents 1 ≤ multiple X<20) | 1 to 10 | < 1
CC(Oc1ccc2[nH]nc(-c3cnn(C)c3)c2c1)c1cc(C2CC2)cc2nccnc12 (stereo not drawn) [Example 139, 7-cyclopropyl-5-(1-((3-(1-methyl-1H-pyrazol-4-yl)-1H-indazol-5-yl)oxy)ethyl)qu inoxaline] |  |  | C (C represents 50 ≤ multiple X<100) | > 100 | 1 to 10
CC(Oc1ccc2[nH]nc(-c3cnn(C4CN(C(=O)C(C)(C)N)C4)c3)c2c1)c1cc(Cl)cc2ncccc12 (stereo not drawn) [Example 211, 2-amino-1-(3-(4-(5-(1-(7-chloroquinolin-5-yl)ethoxy)-1H-indazol-3-yl)-1-pyrazol-1-yl)azetidin-1-yl)-2-methylpropan-1-one] |  |  | B (B represents 20 ≤ multiple X<50) | 10 to 100 | < 1
CC(Oc1ccc2[nH]nc(-c3cnn(C4CN(C(=O)NC5CC5)C4)c3)c2c1)c1cccc2nccnc12 (stereo not drawn) [Example 201, N-cyclopropyl-3-(4-(5-(1-(quinoxalin-5-yl)ethoxy)-1H-indazol-3-yl)-1H-pyrazol-1-yl)azetidine-1-carboxamide] |  |  | A (A represents 1 ≤ multiple X<20) | 1 to 10 | < 1
C[C@@H](Oc1ccc2[nH]nc(-c3cnn(CCC#N)c3)c2n1)c1c(Cl)cncc1Cl [Example 50, (R)-3-(4-(5-(1-(3,5-dichloropyridin-4-yl)ethoxy)-1H-pyrazolo[4,3-b]pyridin-3-yl)-1H-pyrazol-1-yl)propionitrile] |  |  | A (A represents 1 ≤ multiple X<20) | 10 to 100 | < 1

Reference: patent EP4644383A1 (Jiangsu Yahong Meditech Co., Ltd., priority 2022, dated 2024)
